{"source": "patent US20090175845A1", "about": "“METHODS FOR IDENTIFYING COMPOUNDS THAT MODULATE PHB DOMAIN PROTEIN ACTIVITY AND COMPOSITIONS THEREOF” (THE TRUSTEES OF COLUMBIA UNIVERSITY IN THE CITY OF NEW YORK, priority 2005, published 2009)", "key": {"[1]": {"system": "mec-2 null worms expressing the mec-2(C140/174A) gene", "assay": "C. elegans gentle touch sensitivity on plates with defined sterols", "type": "in vivo", "conditions": "sterol substituted for cholesterol in the growth medium, FIG. 8C", "description": "C. elegans experiments. C. elegans strains were cultured at 20° C., assayed for touch sensitivity, and prepared for immunofluorescence as described previously [Zhang et al. (2004) Curr. Biol. 14:1888-96; Goodman et al. (2002) Nature 415:1039-42]. Briefly, C. elegans strains were cultured at 20° C. as described in the art. Strains were grown for at least three consecutive generations without starvation before carrying out the experiments described herein. Gentle touch and harsh touch sensitivity were assayed in blind tests by stimulating with an eyebrow hair or prodding with a platinum wire, respectively, as described in the art. To quantify the response, the number of responses in about 30 animals to 10 touches delivered alternately near the head and tail was recorded. Whole-mount immunofluorescence microscopy was carried out using methods known in the art.\nMedia for growth on limiting or no cholesterol or on other sterols were prepared from chloroform-extracted reagents as described by Matyash et al. [(2004) PLoS Biol. 2: e280].\nFirst, a version of MEC-2 with reduced cholesterol binding was generating by mutating the predicted palmitoylation sites of the protein. Briefly, HEK293T cells were transfected with wild type MEC-2 or MEC-2(C140/174A) and labeled with [^3H]palmitic acid or [^3H]photoaffinity cholesterol. Equal expression of proteins in the lysates was confirmed on Western blots. […] Because touch sensitivity of wild-type animals was not affected by this limited cholesterol depletion, the effects observed with the palmitoylation mutant cannot be attributed to indirect effects on neuronal growth or development. Test compounds that target palmitoylation sites in PHB domain proteins can be used to modulate activity of such proteins, for example, by reducing their activity."}, "Podocin": {"target": "T1, Podocin (Mus musculus, UniProt Q91X05)", "T1 construct": "expressed in transfected cells; host or cells: HEK 293T", "T1 sequence (Q91X05 1-385)": "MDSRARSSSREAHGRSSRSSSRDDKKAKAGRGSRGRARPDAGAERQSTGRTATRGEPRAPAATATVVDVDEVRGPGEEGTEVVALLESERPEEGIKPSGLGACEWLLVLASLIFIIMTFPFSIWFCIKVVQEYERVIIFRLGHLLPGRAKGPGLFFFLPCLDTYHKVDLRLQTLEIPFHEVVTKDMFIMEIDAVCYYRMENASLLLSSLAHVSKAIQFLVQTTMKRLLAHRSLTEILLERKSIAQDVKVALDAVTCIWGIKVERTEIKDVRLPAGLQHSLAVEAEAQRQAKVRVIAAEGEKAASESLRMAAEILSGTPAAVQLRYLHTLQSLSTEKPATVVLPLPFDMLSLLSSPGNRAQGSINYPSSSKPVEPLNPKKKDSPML", "assay": "Photoaffinity labeling with photoactivatable lipids in HEK 293T cells", "type": "binding", "conditions": "Podocin expressed in HEK 293T cells, 16 hours, UV irradiation, autoradiography", "description": "(§1) Photoaffinity labeling. Experiments were performed as described infra. For labeling with [3H]photocholesterol or [3H]photophosphatidylcholine, cells were supplemented with delipidized FCS and [3H]photocholesterol-MBCD complex or 10-azi-stearate and [3H]choline were added. After 16 hours, cells were washed three times with Ca/Mg-PBS (PBS containing 0.1 mM CaCl2 and 1 mM MgCl2) and irradiated for 30 minutes in Ca/Mg-PBS with a 100 W mercury lamp. For further analysis, cells were lysed on ice for 1 h in lysis buffer (50 mM Tris-HCl pH 7.4, 140 mM NaCl, 5 mM EDTA, 0.5 mM phenylmethylsulfonyl fluoride (PMSF), 1% Triton® X-100, 0.5% deoxycholate). The lysate was centrifuged for eight minutes at 10,000×g, and the supernatant was subjected to immunoprecipitation using an anti-FLAG monoclonal antibody. Aliquots of the starting extract, the supernatants after immunoprecipitation and the immunoprecipitates were separated by SDS-PAGE (12%) followed by blotting of the proteins on PVDF membrane. Radioactivity was detected by phosphoimaging (Fujifilm BAS-2500, Fuji Photo Film Co., Ltd, Japan) using a Tritium-sensitive BAS-TR2025 imaging plate (Fuji Photo Film Co., Ltd, Japan). From the same membrane, an immunoblot was performed using anti-FLAG antibodies.\n(§2) Cell Culture Studies. Most cell studies used HEK 293T cells that were grown in DMEM as described [Huber et al. (2001) J. Biol. Chem. 18:18]. […]"}, "MEC-2": {"target": "T2, MEC-2 (Caenorhabditis elegans, UniProt Q27433)", "T2 construct": "expressed in transfected cells; host or cells: HEK 293T", "T2 sequence (Q27433 1-481)": "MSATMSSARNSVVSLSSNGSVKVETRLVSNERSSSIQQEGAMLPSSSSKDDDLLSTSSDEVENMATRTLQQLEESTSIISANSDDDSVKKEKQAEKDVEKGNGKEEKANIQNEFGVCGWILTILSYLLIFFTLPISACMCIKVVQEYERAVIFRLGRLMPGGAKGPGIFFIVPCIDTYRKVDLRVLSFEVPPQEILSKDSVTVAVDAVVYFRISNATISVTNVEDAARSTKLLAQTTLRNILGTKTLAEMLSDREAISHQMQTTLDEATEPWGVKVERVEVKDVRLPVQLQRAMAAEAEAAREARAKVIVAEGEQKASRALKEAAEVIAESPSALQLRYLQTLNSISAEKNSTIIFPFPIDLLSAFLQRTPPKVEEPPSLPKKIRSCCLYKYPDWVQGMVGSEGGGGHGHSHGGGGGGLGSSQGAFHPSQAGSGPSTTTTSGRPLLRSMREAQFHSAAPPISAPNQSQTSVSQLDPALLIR", "assay": "Photoaffinity labeling with photoactivatable lipids in HEK 293T cells", "type": "binding, C. elegans", "conditions": "MEC-2 expressed in HEK 293T cells, 16 hours, UV irradiation, autoradiography", "description": "as §1, §2"}}, "data": [{"smiles": "CC(C)CCC[C@@H](C)[C@H]1CC[C@H]2[C@@H]3CC=C4C[C@@H](O)CC[C@]4(C)[C@H]3CC[C@]12C", "note": "[cholesterol]", "values": [{"measurement": "rescue of reduced touch sensitivity", "setting": "[1]", "value": "dependent on the cholesterol concentration"}, {"measurement": "binding of photoactivatable lipid to Podocin", "setting": "Podocin", "value": "bound"}, {"measurement": "binding of photoactivatable lipid to MEC-2", "setting": "MEC-2", "value": "bound"}]}]}
